Experimental data from BindingDB's records for patent US20230271939 (Ip2Ipo Innovations, 2023).

How the values were obtained:
[1] = molecular target: T1, eIF-2-alpha kinase GCN2 (Homo sapiens, UniProt Q9P2K8); test: GCN2 Enzyme Inhibition (ATP 300 uM)
Method: (§1) The inhibitory activity of the Example compounds towards GCN2 enzyme was measured according to the description below, using a LanthaScreen TR-FRET (Time Resolved Fluorescence Resonance Energy Transfer) Kinase Activity assay distributed by ThermoFisher Scientific. The full-length human GCN2 enzyme (UniProt accession number Q9P2K8) was used for all experiments (Carna Bioscience). The TR-FRET pair was composed of GFP-eIF2α and LanthaScreen Terbium-labeled anti-peIF2α (pSer52) Antibody. […] Full inhibition (3000 nM commercial reference inhibitor) and DMSO vehicle control wells were also included on the same plate. All volumes were normalized to the final DMSO concentration of 2% of the reaction volume. Next, 5 μL of H2O was added to each well of the plate.

[2] = molecular target: T1, eIF-2-alpha kinase GCN2; test: GCN2 Enzyme Inhibition (ATP 10 uM)
Method: as §1

T1 sequence (Q9P2K8 whole entry): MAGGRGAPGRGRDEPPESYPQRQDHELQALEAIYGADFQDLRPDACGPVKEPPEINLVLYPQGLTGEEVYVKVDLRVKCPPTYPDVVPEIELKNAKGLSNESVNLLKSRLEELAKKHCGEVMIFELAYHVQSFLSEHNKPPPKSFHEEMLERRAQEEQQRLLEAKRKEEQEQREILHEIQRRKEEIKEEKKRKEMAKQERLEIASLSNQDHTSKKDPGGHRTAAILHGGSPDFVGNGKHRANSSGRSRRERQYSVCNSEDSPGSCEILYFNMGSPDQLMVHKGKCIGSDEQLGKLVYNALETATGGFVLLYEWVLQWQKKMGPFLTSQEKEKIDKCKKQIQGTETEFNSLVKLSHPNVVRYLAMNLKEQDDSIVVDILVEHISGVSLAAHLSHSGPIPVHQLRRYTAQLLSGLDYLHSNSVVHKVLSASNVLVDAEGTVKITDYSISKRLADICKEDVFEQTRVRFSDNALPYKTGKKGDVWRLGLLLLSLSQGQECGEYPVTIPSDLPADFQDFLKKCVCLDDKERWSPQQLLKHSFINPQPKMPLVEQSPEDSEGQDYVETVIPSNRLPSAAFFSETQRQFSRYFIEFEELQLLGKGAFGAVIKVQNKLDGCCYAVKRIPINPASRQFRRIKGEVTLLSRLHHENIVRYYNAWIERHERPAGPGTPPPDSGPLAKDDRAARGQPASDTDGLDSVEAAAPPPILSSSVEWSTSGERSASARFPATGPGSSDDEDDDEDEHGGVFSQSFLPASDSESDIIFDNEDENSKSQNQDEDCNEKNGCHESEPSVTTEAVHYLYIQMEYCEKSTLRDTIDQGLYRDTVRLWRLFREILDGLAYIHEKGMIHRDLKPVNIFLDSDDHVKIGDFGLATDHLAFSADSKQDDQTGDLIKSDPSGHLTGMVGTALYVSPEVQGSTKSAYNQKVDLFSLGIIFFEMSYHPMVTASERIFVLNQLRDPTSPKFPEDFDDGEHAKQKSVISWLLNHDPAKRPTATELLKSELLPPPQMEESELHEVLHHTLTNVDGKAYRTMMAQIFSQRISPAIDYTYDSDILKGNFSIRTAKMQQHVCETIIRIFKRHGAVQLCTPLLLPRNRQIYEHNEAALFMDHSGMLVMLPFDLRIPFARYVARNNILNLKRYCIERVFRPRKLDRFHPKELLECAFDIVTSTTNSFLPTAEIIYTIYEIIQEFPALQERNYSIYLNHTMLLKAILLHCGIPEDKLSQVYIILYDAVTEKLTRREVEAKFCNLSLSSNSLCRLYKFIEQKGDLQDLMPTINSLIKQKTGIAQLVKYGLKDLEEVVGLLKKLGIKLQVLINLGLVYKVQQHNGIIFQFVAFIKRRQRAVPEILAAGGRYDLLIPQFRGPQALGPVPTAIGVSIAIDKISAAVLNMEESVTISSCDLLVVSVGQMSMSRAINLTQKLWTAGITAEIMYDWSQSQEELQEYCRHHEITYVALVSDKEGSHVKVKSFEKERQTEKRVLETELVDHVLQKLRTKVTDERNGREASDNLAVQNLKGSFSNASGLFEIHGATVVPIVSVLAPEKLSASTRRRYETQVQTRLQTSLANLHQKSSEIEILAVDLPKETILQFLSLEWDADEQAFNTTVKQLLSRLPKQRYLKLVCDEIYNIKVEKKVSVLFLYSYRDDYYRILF

IC50 [1]: 0.0573 µM
Ki [1]: 0.0009 µM
IC50 [2]: 0.0191 µM
Ki [2]: 0.0061 µM
Compound: COc1ncc(Cl)cc1S(=O)(=O)Nc1ncc(F)c(C#Cc2cnc(N)nc2)c1F [US20230271939, Example 10]
